# ChEMBL document CHEMBL3885861, “Open TG-GATES”
# Species: Rattus norvegicus
# Test: Open TG-GATES - Regimen: Single
# Type: toxicity, organism-based, Sprague-Dawley
# Set-up: regimen Single, gender Male, age 6 weeks
# Conditions: in vivo, po, 150 mg/kg, route gavage, dose level High; for APTT / Bas / Eos / Fbg / Hb / Ht / Lym / MCH / MCHC / MCV / Mono / Neu / PT / Plat / RBC / Ret / WBC: tissue Blood; for KIDNEY_L / KIDNEY_R / KIDNEY_TOTAL: tissue Kidney; for LIVER: tissue Liver; for A/G / ALP / ALT / AST / BUN / CRE / Ca / Cl / DBIL / GLC / IP / K / LDH / Na / PL / RALB / TBIL / TC / TG / TP / gamma-GTP: tissue Plasma
smiles,measurement,setting,value
O=c1ccc2ccccc2o1 [COUMARIN],TERMINAL_BW,3 h,182 g
same,APTT,3 h,16 s
same,Bas,3 h,0%
same,Eos,3 h,0.6%
same,Fbg,3 h,201.2 mg/dL
same,Hb,3 h,13.9 g/dL
same,Ht,3 h,42.2%
same,Lym,3 h,73.6%
same,MCH,3 h,22.2 pg
same,MCHC,3 h,33%
same,MCV,3 h,67.3 fL
same,Mono,3 h,5%
same,Neu,3 h,20.8%
same,PT,3 h,12.6 s
same,Plat,3 h,131.8 x10_4/uL
same,RBC,3 h,627.6 x10_4/ul
same,Ret,3 h,9.9%
same,WBC,3 h,86 x10_2/uL
same,KIDNEY_L,3 h,0.8 g
same,KIDNEY_R,3 h,0.9 g
same,KIDNEY_TOTAL,3 h,1.7 g
same,LIVER,3 h,8.3 g
same,A/G,3 h,2.1
same,ALP,3 h,1017.8 IU/L
same,ALT,3 h,45.4 IU/L
same,AST,3 h,76.4 IU/L
same,BUN,3 h,11.4 mg/dL
same,CRE,3 h,0.4 mg/dL
same,Ca,3 h,10.7 mg/dL
same,Cl,3 h,100.6 meq/L
same,DBIL,3 h,0 mg/dL
same,GLC,3 h,220.8 mg/dL
same,IP,3 h,11.2 mg/dL
same,K,3 h,4.3 meq/L
same,LDH,3 h,175 IU/L
same,Na,3 h,137.8 meq/L
same,PL,3 h,158.4 mg/dL
same,RALB,3 h,3.8 g/dL
same,TBIL,3 h,0.2 mg/dL
same,TC,3 h,89.6 mg/dL
same,TG,3 h,53 mg/dL
same,TP,3 h,5.7 g/dL
same,gamma-GTP,3 h,1.6 IU/L
same,TERMINAL_BW,6 h,176.6 g
same,APTT,6 h,16.5 s
same,Bas,6 h,0%
same,Eos,6 h,0.6%
same,Fbg,6 h,210.4 mg/dL
same,Hb,6 h,14.8 g/dL
same,Ht,6 h,44.4%
same,Lym,6 h,68.4%
same,MCH,6 h,21.4 pg
same,MCHC,6 h,33.2%
same,MCV,6 h,64.4 fL
same,Mono,6 h,7.4%
same,Neu,6 h,24.2%
same,PT,6 h,13 s
same,Plat,6 h,111.1 x10_4/uL
same,RBC,6 h,690.2 x10_4/ul
same,Ret,6 h,8.7%
same,WBC,6 h,61.8 x10_2/uL
same,KIDNEY_L,6 h,0.8 g
same,KIDNEY_R,6 h,0.8 g
same,KIDNEY_TOTAL,6 h,1.6 g
same,LIVER,6 h,7.3 g
same,A/G,6 h,2.2
same,ALP,6 h,951.6 IU/L
same,ALT,6 h,45.2 IU/L
same,AST,6 h,77.6 IU/L
same,BUN,6 h,16 mg/dL
same,CRE,6 h,0.5 mg/dL
same,Ca,6 h,10.3 mg/dL
same,Cl,6 h,102.4 meq/L
same,DBIL,6 h,0.008 mg/dL
same,GLC,6 h,190.6 mg/dL
same,IP,6 h,10.1 mg/dL
same,K,6 h,4.5 meq/L
same,LDH,6 h,203.2 IU/L
same,Na,6 h,138 meq/L
same,PL,6 h,144.2 mg/dL
same,RALB,6 h,4 g/dL
same,TBIL,6 h,0.2 mg/dL
same,TC,6 h,94.4 mg/dL
same,TG,6 h,23.4 mg/dL
same,TP,6 h,5.9 g/dL
same,gamma-GTP,6 h,1.4 IU/L
same,TERMINAL_BW,9 h,175.4 g
same,APTT,9 h,16.4 s
same,Bas,9 h,0%
same,Eos,9 h,1%
same,Fbg,9 h,196.4 mg/dL
same,Hb,9 h,14.5 g/dL
same,Ht,9 h,43.8%
same,Lym,9 h,76.8%
same,MCH,9 h,21.6 pg
same,MCHC,9 h,33.1%
same,MCV,9 h,65.2 fL
same,Mono,9 h,8%
same,Neu,9 h,14.4%
same,PT,9 h,13.2 s
same,Plat,9 h,100.6 x10_4/uL
same,RBC,9 h,672.6 x10_4/ul
same,Ret,9 h,9.7%
same,WBC,9 h,79.6 x10_2/uL
same,KIDNEY_L,9 h,0.8 g
same,KIDNEY_R,9 h,0.8 g
same,KIDNEY_TOTAL,9 h,1.6 g
same,LIVER,9 h,7.3 g
same,A/G,9 h,2.1
same,ALP,9 h,950 IU/L
same,ALT,9 h,37.4 IU/L
same,AST,9 h,75.8 IU/L
same,BUN,9 h,15.2 mg/dL
same,CRE,9 h,0.5 mg/dL
same,Ca,9 h,10.6 mg/dL
same,Cl,9 h,102.4 meq/L
same,DBIL,9 h,0.04 mg/dL
same,GLC,9 h,182.8 mg/dL
same,IP,9 h,9.8 mg/dL
same,K,9 h,4.4 meq/L
same,LDH,9 h,153.2 IU/L
same,Na,9 h,137.4 meq/L
same,PL,9 h,147.2 mg/dL
same,RALB,9 h,3.8 g/dL
same,TBIL,9 h,0.3 mg/dL
same,TC,9 h,93 mg/dL
same,TG,9 h,22.4 mg/dL
same,TP,9 h,5.6 g/dL
same,gamma-GTP,9 h,1.2 IU/L
same,TERMINAL_BW,24 h,177.1 g
same,APTT,24 h,16 s
same,Bas,24 h,0%
same,Eos,24 h,1.2%
same,Fbg,24 h,181.2 mg/dL
same,Hb,24 h,14 g/dL
same,Ht,24 h,42%
same,Lym,24 h,77.2%
same,MCH,24 h,21.6 pg
same,MCHC,24 h,33.2%
same,MCV,24 h,65.1 fL
same,Mono,24 h,9.6%
same,Neu,24 h,12.6%
same,PT,24 h,12.9 s
same,Plat,24 h,118.7 x10_4/uL
same,RBC,24 h,645.8 x10_4/ul
same,Ret,24 h,7.5%
same,WBC,24 h,85.4 x10_2/uL
same,KIDNEY_L,24 h,0.8 g
same,KIDNEY_R,24 h,0.9 g
same,KIDNEY_TOTAL,24 h,1.7 g
same,LIVER,24 h,8.5 g
same,A/G,24 h,2.1
same,ALP,24 h,1067.4 IU/L
same,ALT,24 h,40.2 IU/L
same,AST,24 h,85.8 IU/L
same,BUN,24 h,15.6 mg/dL
same,CRE,24 h,0.6 mg/dL
same,Ca,24 h,11 mg/dL
same,Cl,24 h,105.2 meq/L
same,DBIL,24 h,0.016 mg/dL
same,GLC,24 h,179 mg/dL
same,IP,24 h,8.6 mg/dL
same,K,24 h,5.3 meq/L
same,LDH,24 h,202.8 IU/L
same,Na,24 h,137.8 meq/L
same,PL,24 h,121.2 mg/dL
same,RALB,24 h,3.7 g/dL
same,TBIL,24 h,0.4 mg/dL
same,TC,24 h,68.2 mg/dL
same,TG,24 h,42.6 mg/dL
same,TP,24 h,5.5 g/dL
same,gamma-GTP,24 h,1.2 IU/L
